Experimental data from article PMC12261321, “Inhibitors of the Bacterioferritin Ferredoxin Complex Dysregulate Iron Homeostasis and Kill and Biofilm-Embedded Cells” (ACS Infectious Diseases, 2025).
In brackets after ≈: the same amount, converted by molar mass.

Columns and labels:
[1] = Determination of compound aqueous solubility in M63 media; assay type: physicochemical; conditions: in M63 media at 35 °C
Protocol: Determination of Compound Aqueous Solubility. Compound stocks (100 mM in DMSO) were prepared from […]
powder and then further diluted with DMSO to prepare 20 mM working solutions, which were diluted as needed […]
in DMSO. 15 µL o f the DMSO solution was then d iluted to a final volume o f 1.0 mL in M63 media. Six solutions […]
were prepared for each compound, each with a distinct concentration and 1.5% DMSO (v/v). 700 µL of each […]
compound solution was transferred to a polystyrene 48-well plate (VWR), followed by acquisition of UV-vis […]
spectra (300 to 700 nm) with the aid of an Epoch 2 microplate reader (B i o Te k ). […]
Following the acquisition of UV-vis spectra, each of the wells in the plate was inspected under a […]
microscope for evidence of precipitation. Evidence of precipitation at any given concentration was determined by observing a shift in the baseline of the UV-vis spectra relative to the blank (M63 media) and/or evidence of visual precipitation with the aid of a micros cope. […]

[2] = target: T1, recombinant Pa BfrB (Pseudomonas aeruginosa, UniProt Q9HY79); assay: Dissociation constant (Kd), fluorescence quenching titration of apo Pa BfrB; assay type: binding, P. aeruginosa
T1 construct: made in house; host or cells: E. coli
Protocol: Measurement of Dissociation Constant (Kd) R ecombinant Pa BfrB was expressed in E. coli and purified as previously reported.19 Apo-BfrB (devoid of heme) was utilized for the measurements to prevent heme-driven fluorescence quenching. A 0.5 mL solution contai ning 0.01 µM apo Pa-BfrB in PBS (pH = 7.4) containing0.5% DMSO was plac ed into a 1 cm quartz cuvette wh ere it was titrated with aliq uots of compound dissolved in a 50% (v/v) PBS/DMSO solution. The fluorescence quenching brought by the addition of each aliquot was monitored with the aid of an Agilent Cary Fluorometer , with excitation at 280 nm, emission at 320- 470 nm, 10 x10 nm slit width, and an average of 5 scans per spectrum. Th e binding assay included at least 8 aliquots spanning from ~ 0.1 […]
A control titration was carried out by titrati ng compound into PBS buffer. The Kd was cal culated by fitting the data to equation S4, w here Fb is the fraction bound and Fmax is the fraction bound at saturating compound concentration.
FFbb = FFmmmmmm ? [ccccmmccccccmmcc ]? (S4) […]

[3] = test system: P. aeruginosa PAO1; assay: Half maximal inhibitory concentration (IC50), planktonic growth (CFU/mL); assay type: cell-based; conditions: M63 media, 18 h
Protocol: Measurement of Half Maximal Inhibitory Concentration (IC50). IC50 values were determined as reported earlier13 with some modifications. Compound stock solutions in DMSO (100 mM and 10 mM) were prepared from powd er. To prep are the cell susp ensions utilized in the measu rements, starter cultures o f P. aeru ginosa wer e diluted to an optical density at 600 nm (OD600) = 0.005 in fresh LB media (5 mL) and then cultured at 37°C and 220 rpm for 4 h prior to diluting to an OD600 = 0.0001 in M63. A small volume of compound stock solution w as further diluted in DMSO to 30 µL and then diluted in M63 cell suspension to a final volume of 2.0 mL. The resultant solution was placed in a well of a 96-well plate and then serially 2-fold diluted in M63 cell suspension to produce 6 distinct com pound concent rations, each with 1.5% DMSO. Th e plate was co ver ed and incubated for 18 h at 35 °C in a Synergy H1 plate reader (Biotek). The resultant cell cultures were serially diluted in PBS and then plated on PI Agar plates (PIA; BD biosciences) for counting viable cells (CFU/mL). The % growth was calculated from the ratio CFU/mL(t reat ed )/CFU/mL(untreated control). To calculate the IC50 values, the % growth was plotted as a function of compound concentration expressed as log[compound] ( µM), and fitted to equation S1 describing the sigmoid- shaped response pattern, 14 where b is the slope factor, max is the upper asymptote (plateau), and min is the lower asymptote. IC 50 values are the average and standard deviation from three independent experiments , each conducted with thr ee techni cal replicates.

[4] = test system: A. baumannii 5075; assay: MIC, broth microdilution in M63 media; assay type: cell-based
Protocol: (§1) Measurement of Minimum Inhibitory Concentrations (MIC). The MIC of compounds and select ed antibiotics against three strains of A. baumannii (5075, ATCC 17988, and ATCC 19606) were determined via the broth microdilution method according to Clinical and Laboratory Standard Instit ute (CLSI) guidelines,15 but culturing […]
(§2) To establish a 2-fold dilution series of compound, 985 μ L of diluted cells was mixed with 15 μ L of compound […]
(§3) dissolved in DMSO, such that the resultant solution had the highest concentration of compound or antibiotic tested and 1.5% DMSO. To carry out the serial dilution from the highest compound concentration, a 150 μ L solution of higher concentration compound or antibiotic was mixed with 150 μ L of cell suspension containing 1.5% DMSO in the wells of a 96 well plate.
(§4) Th e 96 well plate was in cubated for 20 hat 35 °C with continuous orbital shaking (205 cpm) in an Epoch2 microplate reader (BioTek), monitoring the growth by […]
(§5) following the OD600. […]
(§6) FFFFFF = MMMMMMAA iiii ccllccbbiiiicccciilliiMMMMMMAA+ MMMMMMBB iiii ccllccbbiiiicccciilliiMMMMMMBB S2 Time Kill Assays. Time-kill assays were performed with A. baumannii 507 5 by the broth macro- dilution method in M63- medium containing 1.5% DMSO. An overnight culture was diluted to approximately 5 x10^5 CFU/mL in fresh M63 media. The test solutions were prepared by adding compound (KM-5- 35, or KM-5- 25) dissolved in DMSO to 5 mL of diluted cell suspension to yield a solution of the desired compound concentration and 1.5% DMSO, or by the addition of antibiotic dissolved in water and a small volume of DMSO to produce the desired

[5] = test system: A. baumannii ATCC 17978; assay: MIC, broth microdilution in M63 media; assay type: cell-based
Protocol: as §1, §2, §3, §4, §5, §6

[6] = test system: A. baumannii ATCC 19606; assay: MIC, broth microdilution in M63 media; assay type: cell-based
Protocol: as §1, §2, §3, §4, §5, §6

[7] = M63 media with 1.5% DMSO, 35 °C, aqueous buffer, kinetic from dmso stock
[8] = Acinetobacter baumannii, 5075, 20 h
[9] = Acinetobacter baumannii, ATCC17978, 20 h
[10] = Acinetobacter baumannii, ATCC19606, 20 h

T1 sequence (Q9HY79 whole entry): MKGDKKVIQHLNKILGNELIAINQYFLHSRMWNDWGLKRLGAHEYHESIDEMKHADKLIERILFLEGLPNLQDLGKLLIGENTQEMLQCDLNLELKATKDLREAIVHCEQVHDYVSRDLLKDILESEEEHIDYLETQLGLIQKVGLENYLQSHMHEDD

SMILES: O=C1NC(=O)c2c(NCc3cc(Cl)c(O)cc3O)cccc21 [SB-16-160]
- solubility at 4 h [1]: 80 µM (≈ 25.5 µg/mL)
- Kd [2]: 77 ± 10 µM
- IC50 ([3]; planktonic cells): 45 ± 6 µM
- MIC ([4]; 20 h): > 80 µM
- MIC ([5]; 20 h): > 80 µM
- MIC ([6]; 20 h): > 80 µM

SMILES: O=C1NC(=O)c2c(NCc3cc(Cl)cc(O)c3O)cccc21 [SB-16-168]
- solubility at 4 h [1, 7]: 40 µM (≈ 12.7 µg/mL)
- Kd [2]: 12 ± 2 µM
- IC50 ([3]; Pseudomonas aeruginosa, PAO1, planktonic cells): 15 ± 7 µM
- MIC [4, 8]: 40 µM (≈ 12.7 µg/mL)
- MIC [5, 9]: > 40 µM
- MIC [6, 10]: > 40 µM

SMILES: Cc1cc(CNc2cccc3c2C(=O)NC3=O)c(O)cc1Br [SB-16-183]
- solubility at 4 h [1]: 20 µM (≈ 7.22 µg/mL)
- Kd [2]: 3 ± 0.6 µM
- IC50 ([3]; planktonic cells): 13 ± 1 µM
- MIC ([4]; 20 h): 20 µM (≈ 7.22 µg/mL)
- MIC ([5]; 20 h): 20 µM (≈ 7.22 µg/mL)
- MIC ([6]; 20 h): > 20 µM

SMILES: O=C1NC(=O)c2c(NCc3cc(Br)cc(O)c3O)ccc(Br)c21 [SB-16-250]
- solubility at 4 h [1]: 20 µM (≈ 8.84 µg/mL)
- Kd [2]: 15 ± 3 µM
- IC50 ([3]; planktonic cells): 5 ± 2 µM
- MIC ([4]; 20 h): > 20 µM
- MIC ([5]; 20 h): > 20 µM
- MIC ([6]; 20 h): > 20 µM

SMILES: O=C1NC(=O)c2c(NCc3ccc4c(c3)COC4)cccc21 [SB-17-80]
- solubility at 4 h [1]: 20 µM (≈ 5.89 µg/mL)
- Kd [2]: 11 ± 3 µM
- IC50, P. aeruginosa PAO1 ([3]; planktonic cells): Not active
- MIC, A. baumannii 5075 ([4]; 20 h): Not active
- MIC, A. baumannii 17978 ([5]; 20 h): Not active
- MIC, A. baumannii 19606 ([6]; 20 h): Not active

SMILES: O=C1NC(=O)c2c(NCc3cccc4c3CCN4)cccc21 [SB-17-140]
- solubility at 4 h [1, 7]: 100 µM (≈ 29.3 µg/mL)
- Kd [2]: 37 ± 1 µM
- IC50, P. aeruginosa PAO1 ([3]; planktonic cells): Not active
- MIC [4, 8]: > 100 µM
- MIC [5, 9]: > 100 µM
- MIC [6, 10]: > 100 µM
